The values below come from patent publication US8956445B2, “High stability diionic liquid salts” (Sigma-Aldrich Co., priority 2004, dated 2015).

Molecules are shown by their SMILES. Where two headings read alike, the source gives them in different places.

The procedure of data set [1]: Thermal stabilities were measured by immobilizing an approximate 0.15-0.20 microns film of the ionic liquid on the inner wall of a fused silica capillary. The capillary was then heated slowly in an oven and a very sensitive flame ionization detector (or mass spectrometer) used to detect any volatilization or decomposition of the ionic liquid. There are several advantages of using this set-up to measure the thermal stabilities of ionic liquids. The thermal stability is measured in the absence of oxygen by purging the capillary with a continuous flow of an inert gas such as helium, hydrogen, or nitrogen. […] Finally, this approach can use mass spectrometry detection to determine the likely volatilization/decomposition products.

A short description of data set [2]: Surface tension (DuNuoy Tensiometer). In kind it is physicochemical. The conditions noted are these: room temperature (23° C.).
Data set [3] is described as follows: Density (2.0 mL volumetric tube, weighing by difference). In kind it is physicochemical. Particulars: 23° C.
This is another data set of the same source.
Data set [4] in a line: Refractive index (Abbe-3L refractometer). It is filed as physicochemical. The conditions noted are these: 23° C.
A short description of data set [5]: Solvation interaction parameters by inverse gas-liquid chromatography (Abraham solvation model). It is filed as physicochemical.
The conditions of data set [6]: exposed to the atmosphere and heated; cited from earlier work.

For the compound `C[N+]1(CCCCCCCCC[N+]2(C)CCCC2)CCCC1.O=S(=O)([N-]S(=O)(=O)C(F)(F)F)C(F)(F)F.O=S(=O)([N-]S(=O)(=O)C(F)(F)F)C(F)(F)F` [C9(mpy)2-NTf2, 1,9-di(methylpyrrolidinium)nonane di-bis[(trifluoromethyl)sulfonyl]imidate], the “thermal stability (volatilization/decomposition temperature)” value in data set [1] is > 400 °C. Moreover, in data set [2], the “Surface Tension” value is recorded as 42.2 dynes/cm. The compound also yielded a Density in data set [3] of 1.41 g/mL. Further, under “heptane”, the “Miscibility with Heptane” value is listed as “Immiscible”. Also, where the note is “water”, the “Miscibility with Water” value is listed as “Immiscible”. For the same compound, the “Refractive Index” value in data set [4] is recorded as 1.436. Further, in data set [5] (40° C.), the “a (hydrogen bond basicity)” value was 1.98; the “b (hydrogen bond acidity)” value came to 0.32; the “c (interaction parameter table, constant)” value is reported as −2.83; the “l (dispersion forces)” value is reported as 0.62. Moreover, in data set [5] (40° C.), the “r (interaction via nonbonding and π-electrons)” value came to 0.27; the “s (dipolarity/polarizability)” value was found to be 1.71. In data set [5] (70° C.), the “a (hydrogen bond basicity)” value came out at 1.65; the “b (hydrogen bond acidity)” value is recorded as 0.35; the “c (interaction parameter table, constant)” value is given as −2.85; the “l (dispersion forces)” value is 0.48. In addition, in data set [5] (70° C.), the “r (interaction via nonbonding and π-electrons)” value is 0.34; the “s (dipolarity/polarizability)” value was determined as 1.52. Further, in data set [5] (100° C.), the “a (hydrogen bond basicity)” value turned out to be 1.48; the “b (hydrogen bond acidity)” value came to 0.15; the “c (interaction parameter table, constant)” value is reported as −2.99; the “l (dispersion forces)” value amounted to 0.42. Moreover, in data set [5] (100° C.), the “r (interaction via nonbonding and π-electrons)” value stood at 0.23; the “s (dipolarity/polarizability)” value is recorded as 1.49.
As for `CCCCn1cc[n+](C)c1.[Cl-]` [BMIM-Cl, 1-butyl-3-methylimidazolium chloride, reference compound], in data set [1] (0.15-0.20 micron film in fused silica capillary, helium flow, FID, tested only up to 400° C.), the “thermal stability (volatilization/decomposition temperature)” value was found to be 145 °C. For the same compound, in data set [6], the “temperature of obvious signs of decomposition” value is ≥ 150 °C.
